The assay deals with T1, human PDE2A1 (Homo sapiens, UniProt O00408).
T1 construct: GST; purchased BPS Bioscience (San Diego, Calif.) 60020; host or cells: insect cells
Kind of assay: IMAP FP PDE assay, human PDE2A1. Conditions: Lab B; read-out: Human PDE2 Ki (nM) Lab B. It counts as biochemical. The essentials:
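GST-tagged human PDE2A1 from insect cells; substrate 50 nM FAM-cAMP containing 1000 nM cGMP in Tris pH 7.2/MgCl2/DTT buffer, enzyme giving 20% conversion. 60 min at room temperature, IMAP binding reagent, fluorescence polarization read. Apparent Ki from FP readings using apparent KM 10,000 nM; ten-point 3-fold titrations.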

T1 sequence (O00408 1-920 isoform O00408-2): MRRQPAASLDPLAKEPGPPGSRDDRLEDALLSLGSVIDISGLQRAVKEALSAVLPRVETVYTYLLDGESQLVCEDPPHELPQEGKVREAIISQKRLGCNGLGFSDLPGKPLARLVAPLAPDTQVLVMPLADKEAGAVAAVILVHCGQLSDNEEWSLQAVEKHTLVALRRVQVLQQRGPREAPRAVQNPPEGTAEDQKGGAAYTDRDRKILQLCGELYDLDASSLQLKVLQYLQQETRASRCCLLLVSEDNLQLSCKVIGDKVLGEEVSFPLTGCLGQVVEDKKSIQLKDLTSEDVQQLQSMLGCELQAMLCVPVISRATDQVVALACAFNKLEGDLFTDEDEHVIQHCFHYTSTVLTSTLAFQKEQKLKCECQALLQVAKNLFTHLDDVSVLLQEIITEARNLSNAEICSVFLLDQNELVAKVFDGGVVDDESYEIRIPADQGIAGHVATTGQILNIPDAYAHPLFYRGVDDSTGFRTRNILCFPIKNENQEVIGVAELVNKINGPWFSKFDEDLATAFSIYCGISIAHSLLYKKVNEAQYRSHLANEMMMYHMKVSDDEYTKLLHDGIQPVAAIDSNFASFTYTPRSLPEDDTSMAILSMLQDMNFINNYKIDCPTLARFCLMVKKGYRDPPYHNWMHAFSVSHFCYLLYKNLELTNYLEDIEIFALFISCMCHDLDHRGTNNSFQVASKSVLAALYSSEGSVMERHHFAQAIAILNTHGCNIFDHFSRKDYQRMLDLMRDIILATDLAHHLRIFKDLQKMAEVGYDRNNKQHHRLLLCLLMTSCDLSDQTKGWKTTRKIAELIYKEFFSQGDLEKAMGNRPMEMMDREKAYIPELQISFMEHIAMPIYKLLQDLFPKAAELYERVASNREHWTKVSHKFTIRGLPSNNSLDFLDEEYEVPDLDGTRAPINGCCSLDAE

Consider `COCc1nc2c(c(C(F)F)nn2C(C)c2ccc(C(F)(F)F)cc2)c(=O)[nH]1` (single isomer, unassigned) [Example 187, (R)- or (S)-3-(Difluoromethyl)-6-(methoxymethyl)-1-{1-[4-(trifluoromethyl)phenyl]ethyl}-1,5-dihydro-4H-pyrazolo-[3,4-d]pyrimidin-4-one], for which the inhibition constant Ki was 231 nM.

On to `Cc1nc2c(c(N)nn2C(C)c2ccc(C(F)(F)F)cc2)c(=O)[nH]1` (centres unmarked) [Example 258, 3-Amino-6-methyl-1-(1-(4-(trifluoromethyl)phenyl)ethyl)-H-pyrazolo[3,4-d]pyrimidin-4(5H)-one], for which the inhibitory constant (Ki) is 42 nM.

As for `Cc1nc2c(c(CO)nn2C(C)[C@H]2CC[C@H](C(F)(F)F)CC2)c(=O)[nH]1` (single isomer, unassigned) [Example 125, (S)- or (R)-3-(Hydroxymethyl)-6-methyl-1-((trans)-4-(trifluoro-methyl)cyclohexyl)ethyl)-1H-pyrazolo[3,4-d]pyrimidin-4(5H)-one], the Ki was determined as 26 nM. Then `Cc1nc2c(c(CO)nn2C(C)c2ccc(C(F)(F)F)cn2)c(=O)[nH]1` (single isomer, unassigned) [Example 151, (R)- or (S)-3-(Hydroxymethyl)-6-methyl-1-(1-(5-(trifluoromethyl)pyridin-2-yl)ethyl)-1H-pyrazolo[3,4-d]pyrimidin-4(5H)-one], with 25 nM. Take `Cc1nc2c(c(CO)nn2C(C)[C@H]2CC[C@H](C(F)(F)F)CC2)c(=O)[nH]1` (single isomer, unassigned) [Example 124, (R)- or (S)-3-(Hydroxymethyl)-6-methyl-1-((trans)-4-(trifluoromethyl)cyclohexyl) ethyl)-1H-pyrazolo[3,4-d]-pyrimidin-4(5H)-one]: the inhibition constant (Ki) came to 521 nM. Then `Cc1nc2c(c(C(F)F)nn2C(C)c2ccc(S(F)(F)(F)(F)F)cc2)c(=O)[nH]1` (single isomer, unassigned) [Example 161], with 224 nM; and `CC(c1ccc(C(F)(F)F)cc1)n1nc(C#N)c2c(=O)[nH]c(CC3CCCC3)nc21` (single isomer, unassigned) [Example 350], with 62 nM; and `Cc1nc2c(c([C@H](C)CO)nn2[C@@H](C)c2ccc(C(F)(F)F)cc2)c(=O)[nH]1` (single isomer, unassigned) [Example 321], with 33 nM. Then `CCCc1nc2c(c(CO)nn2C(C)c2ccc(C(F)(F)F)cc2)c(=O)[nH]1` (single isomer, unassigned) [Example 303, (R)- or (S)-3-(Hydroxymethyl)-6-propyl-1-(1-(4-(trifluoromethyl)phenyl)ethyl)-1,5-dihydro-4H-pyrazolo[3,4-d]pyrimidin-4-one], with 4.7 nM; and `Cc1nc2c(c(CO)nn2C(C)c2ccc(C(F)(F)C(F)(F)F)cc2)c(=O)[nH]1` (single isomer, unassigned) [Example 98, (R)- or (S)-3-(Hydroxymethyl)-6-methyl-1-(1-(4-(perfluoroethyl)phenyl)ethyl)-1H-pyrazolo[3,4-d]pyrimidin-4(5H)-one], with 591 nM. Then `Cc1nc2c(c(CO)nn2C(C)c2ccc(C(F)(F)F)cc2Cl)c(=O)[nH]1` (single isomer, unassigned) [Example 18, (R)- or (S)-1-(1-(2-Chloro-4-(trifluoromethyl)phenyl)ethyl)-3-(hydroxymethyl)-6-methyl-1H-pyrazolo[3,4-d]pyrimidin-4(5H)-one], with around 2850 nM; and `Cc1nc2c(c(CC(O)C(F)(F)F)nn2C(C)c2ccc(C(F)(F)F)cc2)c(=O)[nH]1` (single isomer, unassigned) [Example 239], with around 2820 nM. `Cc1nc2c(c(C(F)F)nn2C(C)c2ccc(C(F)(F)F)nc2)c(=O)[nH]1` (single isomer, unassigned) [Example 194]: the Ki was 14 nM.

As for `Cc1nc2c(c(-c3nnco3)nn2C(C)c2ccc(C(F)(F)F)cc2)c(=O)[nH]1` (single isomer, unassigned) [Example 262], the inhibition constant Ki came to 395 nM. Then `CCC(c1ccc(C(F)(F)F)cc1)n1nc(CO)c2c(=O)[nH]c(C)nc21` (single isomer, unassigned) [Example 133, (S)- or (R)-3-(Hydroxymethyl)-6-methyl-1-(1-(4-(trifluoro-methyl)phenyl)propyl)-1H-pyrazolo[3,4-d]pyrimidin-4(5H)-one], with 66 nM.

With `Cc1nc2c(c(CO)nn2C(CC(F)(F)F)c2ccc(C(F)(F)F)cc2)c(=O)[nH]1` (single isomer, unassigned) [Example 96, (R)- or (S)-3-(Hydroxymethyl)-6-methyl-1-(3,3,3-trifluoro-1-(4-(trifluoromethyl)phenyl)propyl)-1H-pyrazolo[3,4-d]pyrimidin-4(5H)-one], the inhibition constant Ki was 16 nM. In the case of `CC(=O)Nc1nn(C(C)c2ccc(C(F)(F)F)cc2)c2nc(C)[nH]c(=O)c12` (single isomer, unassigned) [Example 260], the Ki was 54 nM. The figure for `Cc1nc2c(c(CC(O)C(F)(F)F)nn2C(C)c2ccc(C(F)(F)F)cc2)c(=O)[nH]1` (single isomer, unassigned) [Example 242] is 434 nM; for `Cc1nc2c(c(C(F)F)nn2C(C)c2ccc(OC(F)(F)F)c(F)c2)c(=O)[nH]1` (single isomer, unassigned) [Example 169, (R)- or (S)-3-(Difluoromethyl)-1-(1-(3-fluoro-4-(trifluoromethoxy)phenyl)ethyl)-6-methyl-1H-pyrazolo [3,4-d]pyrimidin-4(5H)-one] it is 18 nM. For the molecule `Cc1nc2c(c(CO)nn2C(C)c2ccc(C(F)(F)F)cc2I)c(=O)[nH]1` (single isomer, unassigned) [Example 141, (S)- or (R)-3-(Hydroxymethyl)-1-(1-(2-iodo-4-(trifluoromethyl-)phenyl)ethyl)-6-methyl-1,5-dihydro-4H-pyrazolo[3,4-d]pyrimidin-4-one], the Ki worked out at 12 nM. The figure for `CC(=O)NCc1nn(C(C)c2ccc(C(F)(F)F)cc2)c2nc(C)[nH]c(=O)c12` (single isomer, unassigned) [Example 277] is around 1300 nM; for `Cc1nc2c(c(CC(F)(F)F)nn2C(c2ccc(C(F)(F)F)c(F)c2)C(C)(C)C)c(=O)[nH]1` (single isomer, unassigned) [Example 60, (R)- or (S)-1-(1-(3-Fluoro-4-(trifluoromethyl)phenyl)-2,2-dimethylpropyl)-6-methyl-3-(2,2,2-trifluoroethyl)-1H-pyrazolo[3,4-d]pyrimidin-4(5H)-one] it is above 2960 nM.

As to `Cc1nc2c(c(CO)nn2C(C)c2ccc(C3(C)CC3)cc2)c(=O)[nH]1` (single isomer, unassigned) [Example 143, (R)- or (S)-3-(Hydroxymethyl)-6-methyl-1-(1-(4-(1-methylcyclopropyl)phenyl)ethyl)-1H-pyrazolo[3,4-d]pyrimidin-4(5H)-one], the Ki was found to be 193 nM. Then `Cc1nc2c(c(Br)nn2C(C)c2ccc(C(F)(F)F)cc2)c(=O)[nH]1` (single isomer, unassigned) [Example 324], with 465 nM; and `COc1cccc(Cc2nc3c(c(C#N)nn3C(C)c3ccc(C(F)(F)F)cc3)c(=O)[nH]2)c1` (single isomer, unassigned) [Example 348], with 4.7 nM. As for `CC(c1ccc(C(F)(F)F)cc1)n1nc(C#N)c2c(=O)[nH]c(CC3CCCC3)nc21` (single isomer, unassigned) [Example 351], the inhibitory constant (Ki) was determined as 1010 nM.
